Results from the supplement of paper PMC12533247.

System: HSV-1 K26-GFP infected primary human skin cells
Experiment: % change of HSV-1 GFP signal vs untreated infected cells; higher = less antiviral inhibition
Description: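 2D primary donor-derived keratinocytes (read at 20 hpi) and donor-matched dermal fibroblasts (read at 48 hpi) infected with GFP-HSV-1 K26 at MOI 1 and treated 1 h later with compound dilutions. IncuCyte GFP integrated intensity is normalised by subtracting mock-infected wells and dividing by untreated infected wells, shown as % change (-100 = full inhibition).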

O=C(Nc1ccc([N+](=O)[O-])cc1Cl)c1cc(Cl)ccc1O [Niclosamide]
% change of HSV-1 GFP signal [%]
Conditions	0.003 µM	0.0091 µM	0.0274 µM	0.0823 µM	0.2469 µM	0.7407 µM	2.2222 µM	6.6667 µM	20 µM	60 µM
cell type: primary dermal fibroblasts, donor: 5, time (h post infection): 48	-6.14	-7.3	-10.1	-19.9	-37	-51.4	-90	-99.53	-99.789	-99.78
cell type: primary keratinocytes, donor: 3, time (h post infection): 20	4.62	3.94	6.19	9.78	4.16	0.034	-16.7	-24.7	-62.7	-81.3
cell type: primary keratinocytes, donor: 4, time (h post infection): 20	-0.953	-7.59	-0.315	-0.334	-9.22	-11.5	-22.6	-42.3	-61.2	-95.4
cell type: primary keratinocytes, donor: 5, time (h post infection): 20	2.55	-1.84	0.0858	1.91	2.59	-2.44	-35.9	-52.8	-76.5	-95.1

Cc1nc(N(C)C(=O)Cc2ccc(-c3ccccn3)cc2)sc1S(N)(=O)=O [Pritelivir]
% change of HSV-1 GFP signal [%]
Conditions	0.001 µM	0.003 µM	0.0091 µM	0.0274 µM	0.0823 µM	0.2469 µM	0.7407 µM	2.2222 µM	6.6667 µM	20 µM
cell type: primary dermal fibroblasts, donor: 5, time (h post infection): 48	-6.88	-8.21	-6.16	-14.2	-21.8	-61.5	-88.3	-99.754	-99.905	-99.853
cell type: primary keratinocytes, donor: 3, time (h post infection): 20	6.78	7.17	4.27	0.771	-17.7	-65.2	-88.8	-97.9	-98.88	-98.8
cell type: primary keratinocytes, donor: 4, time (h post infection): 20	1.71	10.5	3.75	-0.535	-26	-77.35	-95.7	-99.05	-99.54	-99.35
cell type: primary keratinocytes, donor: 5, time (h post infection): 20	3.7	2.94	1.99	-6.85	-31.7	-72.3	-94.1	-99.54	-99.63	-99.66

CC1(C)CC(=O)c2c(C(F)(F)F)nn(-c3ccc(C(N)=O)c(N[C@H]4CC[C@H](O)CC4)c3)c2C1 [SNX-2112]
% change of HSV-1 GFP signal [%]
Conditions	0.001 µM	0.003 µM	0.0091 µM	0.0274 µM	0.0823 µM	0.2469 µM	0.7407 µM	2.2222 µM	6.6667 µM	20 µM
cell type: primary dermal fibroblasts, donor: 5, time (h post infection): 48	–	-7.73	-15.6	-26.2	-67.5	-95.5	-98.7	-98.8	-99.29	-98.8
cell type: primary keratinocytes, donor: 3, time (h post infection): 20	9.13	13.4	18.9	18.3	-27.7	-93.6	-99.06	-99.56	-99.47	-99.7
cell type: primary keratinocytes, donor: 4, time (h post infection): 20	9.33	1.99	-3	-5.23	-58	-98.23	-99.906	-100.1	-100.02	-100
cell type: primary keratinocytes, donor: 5, time (h post infection): 20	8.24	-1.8	-0.244	-15.1	-81.52	-98.96	-99.957	-99.916	-99.948	-99.936

C=CC(=O)N1CC/C(=C\c2ccc(F)c([N+](=O)[O-])c2)C(=O)/C(=C/c2ccc(F)c([N+](=O)[O-])c2)C1 [VLX1570]
% change of HSV-1 GFP signal [%]
Conditions	0.001 µM	0.003 µM	0.0091 µM	0.0274 µM	0.0823 µM	0.2469 µM	0.7407 µM	2.2222 µM	6.6667 µM	20 µM
cell type: primary dermal fibroblasts, donor: 5, time (h post infection): 48	1.14	-5.38	-8.21	-7.07	-8.61	-9.37	-7.7	-10.9	-99.906	-99.87
cell type: primary keratinocytes, donor: 3, time (h post infection): 20	3.39	0.794	7.81	21.4	8.28	2.87	4.02	-1.2	-51.7	-92.7
cell type: primary keratinocytes, donor: 4, time (h post infection): 20	-7.51	-5.56	-6.93	-1.76	-3.15	-3.18	6.11	-25	-97.4	-100
cell type: primary keratinocytes, donor: 5, time (h post infection): 20	4.93	5.79	3.47	7.82	7.36	5.33	1.2	-8.44	-91.4	-99.966

O=C(/C=C\n1cnc(-c2cc(C(F)(F)F)cc(C(F)(F)F)c2)n1)NNc1ccccn1 [Verdinexor]
% change of HSV-1 GFP signal [%]
Conditions	0.001 µM	0.003 µM	0.0091 µM	0.0274 µM	0.0823 µM	0.2469 µM	0.7407 µM	2.2222 µM	6.6667 µM	20 µM
cell type: primary dermal fibroblasts, donor: 5, time (h post infection): 48	-15.5	-14.5	-9.81	-15.2	-14.8	-16.9	-28.1	-45.5	-46.8	-46.5
cell type: primary keratinocytes, donor: 3, time (h post infection): 20	17.4	18.1	8.7	2.9	12.9	9.98	-22.6	-68.6	-87.6	-92
cell type: primary keratinocytes, donor: 4, time (h post infection): 20	-13.1	-10.8	-21.9	-29.6	-15.4	-22.4	-47.4	-82.8	-95.8	-97.6
cell type: primary keratinocytes, donor: 5, time (h post infection): 20	6.47	3.84	3.12	6.11	10.5	3.84	8.2	-36.4	-76.6	-94.9
